One series deals with T1, Human PPARα (Homo sapiens, UniProt Q07869).
T1 construct: expressed in transfected cells; host or cells: 293-T cells, transient transfection
T1 sequence (Q07869 239-466 limits assumed): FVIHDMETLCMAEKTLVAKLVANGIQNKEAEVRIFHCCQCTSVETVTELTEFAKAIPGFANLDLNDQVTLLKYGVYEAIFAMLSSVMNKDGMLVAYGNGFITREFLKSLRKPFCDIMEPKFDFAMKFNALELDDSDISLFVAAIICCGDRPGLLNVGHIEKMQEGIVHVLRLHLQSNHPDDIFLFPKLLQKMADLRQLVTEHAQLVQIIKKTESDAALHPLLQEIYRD
As to the kind of experiment: Activation of human PPARα, GAL4 chimeric receptor luciferase reporter assay in transiently transfected 293-T cells. The format is cell-based. The settings on record: for Photon number (×10^4) / Increased multiple vs control: compounds 10 μM, PPARα; for Photon number (×10^4): luciferase 24 h after administration; for Increased multiple vs control: vs DMSO control. The method, then:
(§1) The compounds were screened with respect to their functional effect of instantaneous transfection in 293-T cells, so that their capabilities of activating PPAR subtypes were determined. A chimeric receptor system as established in advance was used to compare the influence of receptor subtypes on the transcription activity of same target gene. Human PPARα and PPARγ ligand-binding domains were fused respectively with yeast transcription factor GAL4 DNA-binding domains, and then linked to expression vector pM of mammal, to thereby construct two plasmids pM-hPPARα/GAL4 and pM-PPARγ/GAL4. GAL4 DNA-binding area was linked to pB4-tk-luc, to thereby construct pB4-RES-tk-luc (a firefly luciferase reporter gene comprising GAL4 DNA-binding site). pRL-CMV-Rluc was used as an internal control to normalize transfection efficiency and endogenous influence.
293-T cells were incubated in a 48-well plate at a cell density of 2-4×10^4/well, using a phenol red-free and antibiotic-free 1640 medium containing 10% defatted fetal calf serum (FCS). After culturing for 48 h, the medium was replaced with a phenol red-free and antibiotic-free 1640 medium containing 5% defatted FCS, and then three plasmids pM-hPPAR/GAL4, pB4-RES-tk-luc and pRL-CMV-Rluc pertaining to two subtypes were respectively co-transfected into the 293-T cells. The strength of luciferase was measured at the time of 24 h after administration, with 0.2% DMSO as a blank control.
(In a reporter assay the amount or activity of a reporter protein is the signal.)

The next series has as its target T2, Human PPARγ (Homo sapiens, UniProt P37231).
T2 construct: expressed in transfected cells; host or cells: 293-T cells, transient transfection
T2 sequence (P37231 238-503 limits assumed): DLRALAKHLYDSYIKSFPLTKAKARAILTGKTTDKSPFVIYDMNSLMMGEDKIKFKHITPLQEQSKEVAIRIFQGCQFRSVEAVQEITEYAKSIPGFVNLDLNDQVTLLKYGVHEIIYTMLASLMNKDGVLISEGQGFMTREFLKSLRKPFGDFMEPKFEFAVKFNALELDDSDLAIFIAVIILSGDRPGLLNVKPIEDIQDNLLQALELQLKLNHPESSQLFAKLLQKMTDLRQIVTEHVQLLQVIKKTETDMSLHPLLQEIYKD
Kind of series: Activation of human PPARγ, GAL4 chimeric receptor luciferase reporter assay in transiently transfected 293-T cells. The class given is cell-based.
Text: as §1, with “A” for “The compounds were screened with respect to their functional effect of instantaneous transfection in 293-T cells, so that their capabilities of activating PPAR subtypes were determined. A”
The strength of luciferase was measured at the time of 24 h after administration, with 0.2% DMSO as a blank control.

What is called melting point is the temperature, or range, at which the solid turns liquid. In turn, `Cc1oc(-c2ccccc2)nc1CCOc1ccc(C[C@@H](C(=O)O)N2CCN(S(=O)(=O)c3ccccc3F)CC2)cc1` [Example 3, (2S)-2-[4-(2-fluoro-benzenesulfonyl)-piperazin-1-yl]-3-{4-[2-(5-methyl-2-phenyl-1,3-oxazol-4-yl)-ethoxy]-phenyl}-propionic acid] returned a melting point of 170 to 172 °C.

Consider `Cc1cccc(N2CCN([C@@H](Cc3ccc(OCCc4nc(-c5ccccc5)oc4C)cc3)C(=O)O)CC2)c1` [Example 1, (2S)-3-{4-[2-(5-methyl-2-phenyl-1,3-oxazol-4-yl)-ethoxy]-phenyl}-2-(4-m-tolyl-piperazin-1-yl)-propionic acid], for which, at Human PPARα, the “Photon number (×10^4)” value is 11.3 ×10^4 and the “Increased multiple vs control” value was found to be 5.3.

With `Cc1oc(-c2ccccc2)nc1CCOc1ccc(C[C@@H](C(=O)O)N2CCN(c3ccccc3)CC2)cc1Br` [Example 10, (2S)-3-{3-bromo-4-[2-(5-methyl-2-phenyl-1,3-oxazol-4-yl)-ethoxy]-phenyl}-2-(4-phenylpiperazin-1-yl)-propanoic acid], the melting point lay within 220 to 222 °C.

With `Cc1oc(-c2ccccc2)nc1CCOc1ccc(C[C@@H](C(=O)O)N2CCN(c3cccc(Cl)c3)CC2)cc1` [Example 7, (2S)-2-[4-(m-chloro-phenyl)-piperazin-1-yl]-3-{4-[2-(5-methyl-2-phenyl-1,3-oxazol-4-yl)-ethoxy]-phenyl}-propionic acid], the melting point lay in the range of 138 to 139 °C.

The molecule `Cc1oc(-c2ccccc2)nc1CCOc1ccc(C[C@@H](C(=O)O)N2CCN(c3ccccc3)CC2)cc1` [Example 8, (2S)-3-{4-[2-(5-methyl-2-phenyl-1,3-oxazol-4-yl)-ethoxy]-phenyl}-2-(4-phenyl-piperazin-1-yl)-propionic acid] showed a melting point of 218 to 220 °C. Also, at Human PPARα, the “Photon number (×10^4)” value is 13.2 ×10^4 and the “Increased multiple vs control” value amounted to 6.3.

In turn, `Cc1oc(-c2ccccc2)nc1CCOc1ccc(C[C@@H](C(=O)O)N2CCN(S(=O)(=O)c3ccc(F)cc3)CC2)cc1` [Example 4, (2S)-2-[4-(4-fluoro-benzenesulfonyl)-piperazin-1-yl]-3-{4-[2-(5-methyl-2-phenyl-1,3-oxazol-4-yl)-ethoxy]-phenyl}-propionic acid] yielded a melting point of 198 to 200 °C. Further, at Human PPARα, the “Photon number (×10^4)” value was 6.8 ×10^4 and the “Increased multiple vs control” value came out at 3.2. The “Photon number (×10^4)” value on Human PPARγ (compounds 10 μM, PPARγ, luciferase 24 h after administration) is 2.8 ×10^4. For the same molecule, on Human PPARγ (compounds 10 μM, PPARγ, vs control), the “Increased multiple vs control” value is listed as 2.0.

The EC50 is the concentration at which the effect is half-maximal. Low readings indicate a more potent agent, high ones a less potent agent. In turn, `Cc1oc(-c2ccccc2)nc1CCOc1ccc(C[C@@H](C(=O)O)N2CCN(S(=O)(=O)c3ccccc3[N+](=O)[O-])CC2)cc1` [Example 6, (2S)-2-[4-(2-nitro-benzenesulfonyl)-piperazin-1-yl]-3-{4-[2-(5-methyl-2-phenyl-1,3-oxazol-4-yl)-ethoxy]-phenyl}-propionic acid] yielded a melting point of 171 to 173 °C. This molecule also yielded a concentration for a half-maximal effect (EC50) at Human PPARα (activation of PPARα) of 1050 nM. In addition, the midpoint of the response on Human PPARγ (activation of PPARγ), the EC50, lay at 3200 nM.

(Values after patent US7544687B2, “Substituted α-piperazinyl phenylpropionic acid derivatives as hPPAR α and/or hPPAR γ agonists” (Beijing Molecule Science and Technology Co., Ltd, priority 2004, dated 2009).)
